The test system of series [1] is recombinant Comamonas testosteronan synthase (CtTS). Nature of the series: Radiolabeled sugar incorporation assay, divalent cation specificity of CtTS. It counts as biochemical, Comamonas testosteroni KF-1. To be noted: 5 mM Mg2+ or 5 mM Mn2+ or 2 mM EDTA; 30 minutes at 22° C. As for the experimental part:
Radiolabeled sugar incorporation assays were performed (30 minutes at 22° C., as described in methods) in the presence of 5 mM Mg^2+ or 5 mM Mn^2+ or 2 mM EDTA.
(§1) Radiolabeled sugar incorporation assays (25 μl, 30 minutes at 22° C.) were performed using clarified lysates (60 μg total protein) in the presence of 0.05 mM UDP-GlcUA or UDP-GlcNAc as carrier with UDP-[^3H]GlcUA or UDP-[^3H]GlcNAc (0.1 μCi/assay) (NEN Perkin Elmer, Waltham, Mass.) with various unlabeled UDP-sugars (1 mM) or no second sugar as a negative control. The reaction buffer was 50 mM Tris, pH 7.2, 5 mM MgCl2; these conditions were obtained after limited optimization trials. Certain reactions used acceptors (1 μg) to bypass de novo initiation, including HA, heparosan, or Ct polysaccharide (sonicated 10 minutes on ice to increase the number of termini).
(§2) Reactions were incubated at the indicated temperatures for the times noted, and then stopped with 2% final SDS and separated by descending paper chromatography (65:35 ethanol/1 M ammonium acetate buffer, Whatman 3MM paper). This method enabled the separation of GAG polysaccharides with greater than ^˜14 sugar units, which remain at the origin, from smaller oligomers and unincorporated nucleotide sugars that migrate down the strip. The origin of the strip was cut out and subjected to liquid scintillation counting (BIOSAFE™, RPI Corp, Mt. Prospect, Ill.).

Series [2] concerns recombinant Comononas testosteroni synthase (CtTS). Nature of the series: Polymer grafting of testosteronan onto acceptors using CtTS (agarose gel, stoichiometric size control). The format is biochemical, Comamonas testosteroni. As to conditions: acceptor 15 or 30 μM, monosaccharides/glycosides first extended step-wise with two UDP-sugars, Stains-all. The procedure:
The recombinant Comononas testosteroni synthase was incubated with both UDP-sugars and various acceptors (note: monosaccharides or glycosides first subjected to two extension steps via CtTS enzyme before adding both UDP sugars) OR ‘no acceptor’ in reaction buffer. The reactions were then subjected to agarose gel analysis with Stains-all dye detection. From left to right, the lanes are as follows: (1) HA LoLadder standard; (2) ‘no acceptor’ (de novo synthesis); (3) p-Nitrophenyl-β-D-glucuronide (15 μM); (4) p-Nitrophenyl-β-D-glucuronide (30 μM); (5) GlcUA (15 μM); (6) GlcUA (30 μM); (7) GlcNAc (15 μM); (8) GlcNAc (30 μM); (9) AFA=GlcUA-fluorescein-GlcUA (15 μM); (10) AFA (30 μM); (11) Hep4=base de-acetylated, nitrous acid, & reduced heparosan tetrasaccharide (15 μM); and (12) Hep4 (30 μM). Size control (i.e., differences in molecular weight between 15 and 30 μM) is noted with certain acceptors.
The recombinant Comononas testosteroni synthase was incubated with both UDP-sugars and various acceptors OR ‘no acceptor’ in reaction buffer. From left to right in FIG. 21, the lanes are listed below in Table 3.
For all acceptors except Hep4 and AFA, the final acceptor was produced in situ before elongation by extending step-wise with the next two appropriate UDP-sugars. For example, GlcUA was extended first with UDP-GlcNAc, then UDP-GlcUA (making a trisaccharide) before the complete polymerization reaction components (i.e., a mixture of many equivalents of UDP-GlcUA and UDP-GlcNAc together to allow the production of long polymer chains) were added. Two different concentrations of the acceptor were added (either 15 or 30 μM as noted) to test the effect of stoichiometric size control.

The test system of series [3] is recombinant Comamonas testosteronan synthase (CtTS). Nature of the series: Radiolabeled sugar incorporation assay, donor sugar specificity of CtTS. The format is biochemical, Comamonas testosteroni KF-1. To be noted: unlabeled UDP-sugar 1 mM, clarified lysate, 30 minutes at 22° C.; for activity (incorporation of [3H]GlcUA) with the unlabeled UDP-sugar as second precursor: UDP-[3H]GlcUA tracer; for incorporation of [3H]GlcNAc with the unlabeled UDP-sugar as second precursor: UDP-[3H]GlcNAc tracer. The procedure:
FIG. 3 graphically depicts the donor specificity of CtTS.
In order to determine the preferred hexosamine sugar donor utilized for putative GAG-like heteropolysaccharide biosynthesis, activity assays were performed with clarified lysates from recombinant bacteria expressing CtTS using two different UDP-sugars simultaneously in polymerization reactions in vitro. […] By further studying acceptor specificity and using GAG degrading enzymes that are specific for these GAGs, the nature of the polysaccharide formed by CtTS in vitro was characterized.
as §1, §2

Series [4] concerns Proteus vulgaris chondroitinase ABC. Put plainly: GAG degrading enzyme challenge: chondroitinase ABC. It counts as in vitro ADME. The text has this:
(§3) Because of this finding, it is believed that while CtTS is able to utilize heparosan as an acceptor molecule due to a hypothetical shared structural feature, this GAG is not the native substrate.

A further series addresses heparin lyase I (Pedobacter heparinus, UniProt Q05819). Nature of the series: GAG degrading enzyme challenge: heparin lyase I. The format is in vitro ADME.
Excerpt: as §3

The test system of series [5] is Streptomyces hyalurolyticus HA lyase. Nature of the series: GAG degrading enzyme challenge: HA lyase. The format is in vitro ADME.
Excerpt: as §3

In series [6] the test system is recombinant Comamonas testosteronan synthase (CtTS). Put plainly: Radiolabeled sugar polymerization assay, acceptor specificity of CtTS. The format is biochemical, Comamonas testosteroni KF-1. To be noted: radiolabeled UDP-sugars; acceptor 1 μg. As for the experimental part:
FIG. 4 graphically depicts the acceptor specificity of CtTS. Extension of exogenous polysaccharide by recombinant Comamonas testosteronan synthase was measured. Activity assays were performed with radiolabeled UDP-sugars in the presence of hyaluronan, unsulfated chondroitin, heparosan or sonicated Comamonas polysaccharide.
Acceptor Specificity of CtTS: To identify the acceptor preference of CtTS, radiolabeled sugar polymerization assays were performed in the presence of various GAG acceptors. In many, but not all, GAG synthases, exogenous cognate polysaccharide will increase the signal in sugar incorporation assays by bypassing the slower de novo initiation phase (DeAngelis et al., 1999 and 2004); the elongation phase is much more rapid; thus, higher activity is observed. Typically, non-cognate GAG polymers with different glycosidic linkage patterns are very poor or non-functional acceptors for the known GAG synthases in vitro. Hyaluronan, unsulfated chondroitin and heparosan as well as polysaccharide extract from C. testosteroni were tested. Hyaluronan and heparosan tetrasaccharides were also tested for their abilities to act as acceptors. […] To confirm that CtTS is able to directly extend a heparosan acceptor so as to rule out an artifactual stabilizing or conformational effect in the radioassays, an ^125I-labeled tetrasaccharide heparosan acceptor was also tested in vitro in the presence of only UDP-GlcNAc for single sugar addition, or UDP-GlcNAc and UDP-GlcUA for polymerization.
Radiolabeled sugar incorporation assays (25 μl, 30 minutes at 22° C.) were performed using clarified lysates (60 μg total protein) in the presence of 0.05 mM UDP-GlcUA or UDP-GlcNAc as carrier with UDP-[^3H]GlcUA or UDP-[^3H]GlcNAc (0.1 μCi/assay) (NEN Perkin Elmer, Waltham, Mass.) with various unlabeled UDP-sugars (1 mM) or no second sugar as a negative control. The reaction buffer was 50 mM Tris, pH 7.2, 5 mM MgCl2; these conditions were obtained after limited optimization trials. […]
Target sequence in this assay (as listed by the source): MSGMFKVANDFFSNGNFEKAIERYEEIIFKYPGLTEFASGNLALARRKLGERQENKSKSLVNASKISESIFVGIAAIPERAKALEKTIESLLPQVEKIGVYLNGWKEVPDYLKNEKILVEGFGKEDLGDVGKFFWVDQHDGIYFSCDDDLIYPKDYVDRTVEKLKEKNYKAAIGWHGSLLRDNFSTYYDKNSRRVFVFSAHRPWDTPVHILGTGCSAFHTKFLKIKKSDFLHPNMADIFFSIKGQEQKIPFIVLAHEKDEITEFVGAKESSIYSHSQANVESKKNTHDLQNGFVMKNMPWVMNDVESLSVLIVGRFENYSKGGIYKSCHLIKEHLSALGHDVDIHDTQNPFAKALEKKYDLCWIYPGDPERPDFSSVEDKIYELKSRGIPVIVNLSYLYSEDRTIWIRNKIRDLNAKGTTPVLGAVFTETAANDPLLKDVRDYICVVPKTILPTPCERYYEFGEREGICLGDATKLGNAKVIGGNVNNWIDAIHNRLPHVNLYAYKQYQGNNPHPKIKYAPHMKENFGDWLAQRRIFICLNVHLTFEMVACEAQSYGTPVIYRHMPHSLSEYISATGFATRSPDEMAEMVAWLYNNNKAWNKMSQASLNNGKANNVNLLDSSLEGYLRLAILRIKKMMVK

Entries after “also recorded” stand apart in the source; their conditions may differ.

Sequence of heparin lyase I (Q05819 22-384): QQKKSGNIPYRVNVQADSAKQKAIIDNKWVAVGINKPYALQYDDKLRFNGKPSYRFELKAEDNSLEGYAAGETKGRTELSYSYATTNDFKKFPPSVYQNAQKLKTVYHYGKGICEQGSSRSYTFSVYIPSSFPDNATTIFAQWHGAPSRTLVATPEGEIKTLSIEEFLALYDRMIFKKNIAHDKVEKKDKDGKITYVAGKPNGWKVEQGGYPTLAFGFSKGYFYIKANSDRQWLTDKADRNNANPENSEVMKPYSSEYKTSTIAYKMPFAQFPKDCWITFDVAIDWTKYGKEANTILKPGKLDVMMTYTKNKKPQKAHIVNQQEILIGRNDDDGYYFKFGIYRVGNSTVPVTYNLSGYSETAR

As for `O=C(O)CN(CCN(CC(=O)O)CC(=O)O)CC(=O)O` [EDTA], the “GT activity of CtTS in the presence of divalent cation or chelator” value in series [1] was “eradicated the polymerization signal”.
Turning to `CC(=O)N[C@H]1C(O)O[C@H](CO)[C@@H](O)[C@@H]1O` (stereo partly shown) [GlcNAc, N-acetylglucosamine], the “stoichiometric size control of testosteronan product by acceptor” value in series [2] is listed as “did not”.
Still for that read-out and setting: as for `O=C[C@H](O)[C@@H](O)[C@H](O)[C@H](O)C(=O)O` [GlcUA, glucuronic acid], the entry is “allowed efficient size control”.
Consider `[Mg+2]` [Mg^2+], for which, in series [1], the “GT activity of CtTS in the presence of divalent cation or chelator” value is given as “roughly twice as for Mn^2+”.
On the same count and under the same terms, as for `[Mn+2]` [Mn^2+], the entry is “supported GT activity”.
On to `CC(=O)N[C@H]1[C@@H](OP(=O)(O)OP(=O)(O)OC[C@H]2O[C@@H](n3ccc(=O)[nH]c3=O)[C@H](O)[C@@H]2O)O[C@H](CO)[C@H](O)[C@@H]1O` [UDP-GalNAc], for which the “activity (incorporation of [3H]GlcUA) with the unlabeled UDP-sugar as second precursor” value in series [3] was “not”.
As to `O=C(O)[C@H]1O[C@H](OP(=O)(O)OP(=O)(O)OC[C@H]2O[C@@H](n3ccc(=O)[nH]c3=O)[C@H](O)[C@@H]2O)[C@H](O)[C@@H](O)[C@H]1O` [UDP-GalUA], the “incorporation of [3H]GlcNAc with the unlabeled UDP-sugar as second precursor” value (from here on “incorporation of [3H]GlcNAc”) in series [3] is given as “only the reactions containing UDP-GlcUA showed significant incorporation”.
For the compound `CC(=O)N[C@H]1[C@@H](OP(=O)(O)OP(=O)(O)OC[C@H]2O[C@@H](n3ccc(=O)[nH]c3=O)[C@H](O)[C@@H]2O)O[C@H](CO)[C@@H](O)[C@@H]1O` [UDP-GlcNAc], in series [3], the “activity (incorporation of [3H]GlcUA) with the unlabeled UDP-sugar as second precursor” value is recorded as “Significant activity”.
Consider `O=C(O)[C@H]1O[C@H](OP(=O)(O)OP(=O)(O)OC[C@H]2O[C@@H](n3ccc(=O)[nH]c3=O)[C@H](O)[C@@H]2O)[C@H](O)[C@@H](O)[C@@H]1O` [UDP-GlcUA], for which the “incorporation of [3H]GlcNAc” value in series [3] is reported as “significant incorporation”.
Consider `O=C(O)[C@@H]1O[C@@H](OP(=O)(O)OP(=O)(O)OC[C@H]2O[C@@H](n3ccc(=O)[nH]c3=O)[C@H](O)[C@@H]2O)[C@H](O)[C@@H](O)[C@@H]1O` [UDP-IdoUA], for which the “incorporation of [3H]GlcNAc” value in series [3] is given as “only the reactions containing UDP-GlcUA showed significant incorporation”.
As for `O=C(O)[C@H]1O[C@@H](Oc2ccc([N+](=O)[O-])cc2)[C@H](O)[C@@H](O)[C@@H]1O` [p-Nitrophenyl-D-glucuronide, p-Nitrophenyl-β-D-glucuronide], in series [2], the “stoichiometric size control of testosteronan product by acceptor” value is “allowed efficient size control”.
Same read-out and setting: in the case of GlcUA-fluorescein-GlcUA [AFA] it was “efficient size control”.
“[-4-D-GlcUA-α1,4-D-GlcNAc-α1-]n [synthetic polysaccharide]”: the “sensitivity to degradation by Proteus vulgaris chondroitinase ABC” value in series [4] was “insensitive to degradation”. For the same compound, the “sensitivity to degradation by heparin lyase I” value at heparin lyase I is given as “insensitive to degradation”. For the same compound, the “sensitivity to degradation by Streptomyces hyalurolyticus HA lyase” value in series [5] was “insensitive to degradation”.
Regarding “[-4-D-GlcUA-α1,4-D-GlcNAc-α1-]n [testosteronan]”, the “sensitivity to degradation by heparin lyase I” value at heparin lyase I is on record as “did not digest”.
Turning to “[-4-D-GlcUA-β1,3-D-GlcNAc-β1-]n [hyaluronan]”, the “use of exogenous GAG polysaccharide as acceptor by CtTS” value in series [6] is “not”.
As for “[-4-D-GlcUA-β1,4-D-GlcNAc-α1-]n [heparosan]”, the “use of exogenous GAG polysaccharide as acceptor by CtTS” value in series [6] is recorded as “able to use; also recorded: capable of utilizing”.
The same measure, in the same setting: in the case of chondroitin it was “not”.
